{"source": "patent US20130078224A1", "about": "“INDUCTION/MONITORING OF ARTERIOGENESIS USING SDF1 AND PDGFB OR INHIBITION OF PHD2” (LIFE SCIENCES RESEARCH PARTNERS VZW, priority 2010, published 2013)", "key": {"[1]": {"tested_on": "hCASMC (Human coronary artery smooth muscle cells)", "assay": "SMC migration (Transwell) toward PHD2+/- macrophages", "assay_type": "cell-based", "settings": "AMD3100 1 μg/ml, imatinib 2.5 μg/ml, alone or combined", "procedure": "(§1) Cell Migration and Viability Assays: Migration and proliferation of SMCs and ECs were assessed by using 8 μm-pore Transwell peimeable plate for migration assays and 0.4 μm-pore Transwell permeable plate for proliferation assays (Corning Life Science). To determine cell migration toward the factors secreted by pMØ, pMØ were cultured in the lower chamber for twelve hours in RPMI 1% FBS or in M-199 1% FBS (migration assay), or 48 hours in DMEM-F12 1% FBS or in M-199 1% FBS (proliferation assay). For migration assays, hCASMC (Human coronary artery smooth muscle cells; from Lonza) and HUVEC (Human umbilical vein endothelial cells; from Lonza) were starved for twelve hours in their own medium at 1% FBS and, therefore, seeded in the upper chamber (5×10^3 cells in 200 μl of medium 1% FBS), with or without AMD3100 (1 μg/ml, Sigma-Aldrich, Dorset, U.K) and imatinib (2.5 μg/ml, Novartis). SMCs and HUVECs were incubated for two days or 24 hours, respectively, and migrated cells were fixed with 4% PFA, stained with 0.25% crystal violet/50% methanol and counted under the microscope. VEGF (100 ng/mL, R&D), PDGFB (100 ng/mL, R&D) or SDF 1 (100 ng/mL, R&D) were used as positive controls. […] The cell proliferative ability was then analyzed using WST-1 Cell Proliferation Assay (Roche Applied Biosciences) according to the manufacturer instructions after 24 hours of coculture with the pMØ. […]"}, "[2]": {"tested_on": "RAOSMC (Rat Aortic Smooth Muscle Cells)", "assay": "SMC growth assay (WST-1) in coculture with PHD2+/- macrophages", "assay_type": "cell-based", "settings": "AMD3100, imatinib, alone or combined", "procedure": "as §1"}, "[3]": {"tested_on": "secondary and tertiary collateral arterioles", "assay": "Collateral vessel formation in bone marrow transplanted mice treated with AMD3100/imatinib (gelatin bismuth angiography)", "assay_type": "in vivo", "settings": "for increased formation of second generation collateral branches / third generation collaterals: HE→WT mice, daily AMD3100 5 mg/kg or imatinib 50 mg/kg alone; for number of collateral branch arteries: WT→WT mice, alone or in combination", "procedure": "Mouse Model of Hindlimb Ischemia: To induce hind limb ischemia, unilateral or bilateral ligations of the femoral artery and vein (proximal to the popliteal artery) and the cutaneous vessels branching from the caudal femoral artery side branch were performed without damaging the nervus femoralis (Luttun et al., Nat. Med. 8:831-840, 2002). By using this procedure, collateral flow to adductor muscles is preserved via arterioles branching from the femoral artery, therefore, 50% up to 60% of perfusion is preserved by this method. Two superficial preexisting collateral arterioles connecting the femoral and saphenous arteries were used for analysis. Functional perfusion measurements of the collateral region were performed using a Lisca PIM II camera (Gambro). Gelatin bismuth-based angiography was perfottned as described (Carmeliet et al., Nat. Med. 7:575-583, 2001) and analyzed by photoangiographs (Nikon D1 digital camera). Collateral side branches were categorized as follows: second-generation collateral arterioles directly branched off from the main collateral, whereas third-generation collateral arterioles were orientated perpendicularly to the second-generation branches. The number of secondary and tertiary collateral arterioles was counted. After perfusion-fixation, the muscle tissue between the two superficial collateral arterioles (adductor) was post-fixed in 2% paraformaldehyde (PFA) and paraffin-embedded, and were morphometrically analyzed. An endurance treadmill-running test was perfatmed at 12, 24, 48, and 72 hours after bilateral femoral artery ligation.\nBone Marrow (BM) Transplantation and Hematological Analysis: Balb/c WT and PHD2^+/− recipient mice were irradiated with 7.5 Gy. Subsequently, 5×10^6 bone marrow cells from green fluorescent protein^+ (GFP^+) WT or GFP^+ PHD2^+/− mice were injected intravenously via the tail vein. After one week, saline or AMD3100 (5 mg/kg) was administered intravenously and saline or imatinib ([…]) was administered by oral gavage for four weeks. Femoral artery ligation, treadmill running test and bismuth angiography were performed at six weeks after bone marrow reconstitution. Red and white blood cell count was determined using a hemocytometer on peripheral blood collected in heparin with capillary pipettes by retro-orbital bleeding. To assess the effect of acute deletion of macrophage-borne PHD2 on arteriogenesis, PHD2^Rosa26CreERT;lox/wt bone marrows were transplanted into lethally irradiated WT recipient mice. After five weeks, transplanted mice were injected i.p. with tamoxifen (1 mg/mouse; Sigma) or vehicle for five days. TEM quantification and femoral artery ligation were performed ten days after tamoxifen treatment as explained above. The bone marrow of PHD2^WT;Tie2:GFP or PHD2^HE;Tie2:GFP mice was transplanted in lethally irradiated WT mice. After five weeks, mice were injected systemically (5×10^11 vp) and locally (5×10^9 vp in two points of the adductor) with an AAV9 encoding the mouse extracellular domain of Tie2 fused to a flag tag (AAV9:sTie2). AAV9 encoding the human serum albumin was used as control. One week after injection of the viral vector, mice were subjected to femoral artery ligation. Blood and adductor samples were harvested at baseline and 72 hours post-ischemia and used to sort CD115^+GFP^+ circulating monocytes and F4/80^+GFP^+ macrophages."}, "[4]": {"tested_on": "secondary and tertiary collateral arteries", "assay": "Collateralization and ischemic necrosis in Tie2:tk-BMT mice after GCV", "assay_type": "in vivo", "settings": "PHD2+/- Tie2:tk-BMT mice"}, "[5]": {"tested_on": "F4/80+Tie2+ cells", "assay": "Deletion of TEMs by GCV in Tie2:tk-BMT mice (F4/80 and Tie2 double staining of adductor)", "assay_type": "in vivo", "settings": "GCV 50 mg/kg daily"}, "[6]": {"tested_on": "PHD3", "assay": "PHD3 gene knockdown (qRT-PCR) in macrophages", "assay_type": "cell-based, mice", "procedure": "Transduction and Transfection of Bone Marrow-Derived Macrophages and Lung Endothelial Cells: To express an inducible NF-κB responsive firefly luciferase reporter, commercially available lentiviral vector particles (LV) were used (Cignal Lenti NF-κB Reporter; SABiosciences). 2.5×10^5 bone marrow-derived macrophages and 10^5 primary lung endothelial cells (isolated as previously described (Mazzone et al., 2009, see above)) were seeded in a 24-well plate in DMEM 10% FBS or M199 20% FBS for eight hours. Cells were transduced with 10^8 TU/ml. Eight hours after transduction, the medium wash was replaced. After 48 hours, cells were stimulated with TNFα (20 ng/mL) for eight hours and the same amount of protein extract was read in a luminometer. For PHD3 silencing, siRNA oligonucleotides were designed using the Invitrogen online siRNA design tool (world wide web at maidesigner.invitrogen.com). The following sequences (sense strands) and target positions were used: PHD3 siRNA: 5′-[…]-3′ (SEQ ID NO:1); scramble siRNA:5′-[…]-3′ (SEQ ID NO:2). In brief, one day after the transduction of macrophages with LV, cells were transfected using Lipofectamine 2000 (Invitrogen) according to the manufacturer's instructions. Preparation of the oligonucleotide-Lipofectamine 2000 complexes was done as followed: 25 pmol siRNA oligonucleotide (stock: 20 μM) was diluted in 50 μl Opti-MEM I reduced serum medium. Lipofectamine 2000 (1.5 μl) was diluted in 50 μl Opti-MEM I reduced serum medium and incubated for five minutes at room temperature. siRNA oligonucleotides were gently mixed with Lipofectamine 2000 and allowed to incubate at room temperature for twenty minutes to form complexes. Just before transfection, the cell culture medium was removed and cells were rinsed twice with serum-free Opti-MEM I medium. The Lipofectamine 2000-siRNA oligonucleotide complexes were added to each well in 400 μl of serum-free Opti-MEM medium for five hours. Afterwards, cells were incubated in complete medium for 48 hours at 37° C. in a CO2 incubator and assayed for gene knockdown (qRT-PCR) and luciferase activity. […]"}, "[7]": {"tested_on": "NF-κB", "assay": "NF-κB-responsive firefly luciferase reporter assay in bone marrow-derived macrophages", "assay_type": "cell-based, mice", "procedure": "Transduction and Transfection of Bone Marrow-Derived Macrophages and Lung Endothelial Cells: To express an inducible NF-κB responsive firefly luciferase reporter, commercially available lentiviral vector particles (LV) were used (Cignal Lenti NF-κB Reporter; SABiosciences). 2.5×10^5 bone marrow-derived macrophages and 10^5 primary lung endothelial cells (isolated as previously described (Mazzone et al., 2009, see above)) were seeded in a 24-well plate in DMEM 10% FBS or M199 20% FBS for eight hours. Cells were transduced with 10^8 TU/ml. Eight hours after transduction, the medium wash was replaced. After 48 hours, cells were stimulated with TNFα (20 ng/mL) for eight hours and the same amount of protein extract was read in a luminometer. For PHD3 silencing, siRNA oligonucleotides were designed using the Invitrogen online siRNA design tool (world wide web at maidesigner.invitrogen.com). The following sequences (sense strands) and target positions were used: PHD3 siRNA: 5′-[…]-3′ (SEQ ID NO:1); scramble siRNA:5′-[…]-3′ (SEQ ID NO:2). In brief, one day after the transduction of macrophages with LV, cells were transfected using Lipofectamine 2000 (Invitrogen) according to the manufacturer's instructions. Preparation of the oligonucleotide-Lipofectamine 2000 complexes was done as followed: 25 pmol siRNA oligonucleotide (stock: 20 μM) was diluted in 50 μl Opti-MEM I reduced serum medium. Lipofectamine 2000 (1.5 μl) was diluted in 50 μl Opti-MEM I reduced serum medium and incubated for five minutes at room temperature. siRNA oligonucleotides were gently mixed with Lipofectamine 2000 and allowed to incubate at room temperature for twenty minutes to form complexes. Just before transfection, the cell culture medium was removed and cells were rinsed twice with serum-free Opti-MEM I medium. The Lipofectamine 2000-siRNA oligonucleotide complexes were added to each well in 400 μl of serum-free Opti-MEM medium for five hours. Afterwards, cells were incubated in complete medium for 48 hours at 37° C. in a CO2 incubator and assayed for gene knockdown (qRT-PCR) and luciferase activity. To assess if the increased NFkB activity observed in PHD2^+/− macrophages was dependent on the hydroxylase activity of PHD2, 48 hours before transduction, 4×10^6 bone marrow-derived macrophages were resuspended in 240 μl of Opti-MEM and were electroporated (250 V, 950 uF, ∝ Ω) with 7 μg of plasmids expressing a wild-type PHD2 (PHD2^wt) or a PHD2 containing a mutation at the catalytic site (PHD2^H313A)."}}}
{"molecule": "c1cc(CN2CCCNCCNCCCNCC2)ccc1CN1CCCNCCNCCCNCC1", "note": "[AMD3100]", "values": [{"measurement": "migration of SMCs toward PHD2+/- macrophages", "setting": "[1]", "result": "not effective"}, {"measurement": "increased SMC growth by PHD2+/- macrophages", "setting": "[2]", "result": "abrogated"}, {"measurement": "increased formation of second generation collateral branches", "setting": "[3]", "result": "only partially prevented"}, {"measurement": "third generation collaterals", "setting": "[3]", "result": "affected"}, {"measurement": "number of collateral branch arteries", "setting": "[3]", "result": "not affected"}]}
{"molecule": "Cc1ccc(NC(=O)c2ccc(CN3CCN(C)CC3)cc2)cc1Nc1nccc(-c2cccnc2)n1", "note": "[imatinib]", "values": [{"measurement": "migration of SMCs toward PHD2+/- macrophages", "setting": "[1]", "result": "not effective"}, {"measurement": "increased SMC growth by PHD2+/- macrophages", "setting": "[2]", "result": "abrogated"}, {"measurement": "increased formation of second generation collateral branches", "setting": "[3]", "result": "only partially prevented"}, {"measurement": "third generation collaterals", "setting": "[3]", "result": "affected"}, {"measurement": "number of collateral branch arteries", "setting": "[3]", "result": "not affected"}]}
{"molecule": "Nc1nc(O)c2ncn(COC(CO)CO)c2n1", "note": "[GCV, ganciclovir]", "values": [{"measurement": "ischemic protection (fiber necrosis)", "setting": "[4]; 72 hours after ligation", "result": "abolished ischemic protection"}, {"measurement": "formation of secondary and tertiary collateral arteries", "setting": "[4]; baseline, vs untreated group", "result": "completely prevented"}, {"measurement": "reduction of density of F4/80+Tie2+ cells", "setting": "[5]; PHD2+/- Tie2:tk-BMT mice, 72 hours post-ischemia", "result": "68±5", "unit": "%"}, {"measurement": "reduction of density of F4/80+Tie2+ cells", "setting": "[5]; PHD2+/- Tie2:tk-BMT mice, baseline", "result": "58±11", "unit": "%"}, {"measurement": "reduction of density of F4/80+Tie2+ cells", "setting": "[5]; WT Tie2:tk-BMT mice, 72 hours post-ischemia", "result": "39±6", "unit": "%"}, {"measurement": "reduction of density of F4/80+Tie2+ cells", "setting": "[5]; WT Tie2:tk-BMT mice, baseline", "result": "46±10", "unit": "%"}]}
{"molecule": "5′-GCCGGCUGGGCAAAUACUAUGUCA-3′ (SEQ ID NO:1) [PHD3 siRNA]", "values": [{"measurement": "knockdown of PHD3 vs scramble control", "setting": "[6]; PHD2LysCre;lox/lox macrophages", "result": "37±0.01", "unit": "%"}, {"measurement": "knockdown of PHD3 vs scramble control", "setting": "[6]; PHD2LysCre;lox/wt macrophages", "result": "60±0.04", "unit": "%"}, {"measurement": "knockdown of PHD3 vs scramble control", "setting": "[6]; PHD2LysCre;wt/wt macrophages", "result": "63±0.03", "unit": "%"}, {"measurement": "induction of NF-κB activity vs scramble control", "setting": "[7]; PHD2LysCre;lox/lox macrophages", "result": 70, "unit": "%"}, {"measurement": "induction of NF-κB activity vs scramble control", "setting": "[7]; PHD2LysCre;lox/wt macrophages", "result": 14, "unit": "%"}, {"measurement": "induction of NF-κB activity vs scramble control", "setting": "[7]; PHD2LysCre;wt/wt macrophages", "result": 22, "unit": "%"}]}
